From article PMC10035947, “Development of novel anilinoquinazoline-based carboxylic acids as non-classical carbonic anhydrase IX and XII inhibitors” (Journal of Enzyme Inhibition and Medicinal Chemistry, 2023)
Where two headings read alike, the source gives them in different places.

Key:
A549/ATCC = assay: NCI SRB assay; type: cell-based, human
RPMI-8226 = assay: NCI SRB assay; type: cell-based, human; details: for CC50: read-out: LC50 (the source's name)
MCF7 = assay: NCI SRB assay; type: cell-based, human; details: for CC50: read-out: LC50 (the source's name)
MDA-MB-468 = assay: NCI SRB assay; type: cell-based, human; details: for CC50: read-out: LC50 (the source's name)
T-47D = assay: NCI SRB assay; type: cell-based, human; details: for GI50 / TGI / CC50: 5-dose; for CC50: read-out: LC50 (the source's name)
OVCAR-4 = assay: NCI SRB assay; type: cell-based, human; details: for CC50: read-out: LC50 (the source's name)
PC-3 = assay: NCI SRB assay; type: cell-based, human; details: for CC50: read-out: LC50 (the source's name)
HCC-2998 = assay: NCI SRB assay; type: cell-based, human; details: for CC50: read-out: LC50 (the source's name)
NCI/ADR-RES = assay: NCI SRB assay; type: cell-based, human; details: for CC50: read-out: LC50 (the source's name)
OVCAR-8 = assay: NCI SRB assay; type: cell-based, human; details: for CC50: read-out: LC50 (the source's name)
HCT-116 = assay: NCI SRB assay; type: cell-based, human; details: for CC50: read-out: LC50 (the source's name)
hCA XII = target: T1, hCA XII (Homo sapiens, UniProt O43570); assay: stopped flow CO2 hydrase assay; type: biochemical
T1 construct: made in house
How it was run: (§1)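 Recombinant enzymes assayed by stopped-flow CO2 hydration using 0.2 mM phenol red at 557 nm in 20 mM Hepes pH 7.5 with 20 mM Na2SO4, CO2 1.7–17 mM. Inhibitor and enzyme preincubated 15 min at room temperature.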

hCA IX = target: T2, hCA IX (Homo sapiens, UniProt Q16790); assay: stopped flow CO2 hydrase assay; type: biochemical
T2 construct: made in house
How it was run: as §1

hCA I = target: T3, hCA I (Homo sapiens, UniProt P00915); assay: stopped flow CO2 hydrase assay; type: biochemical; details: mean from 3 assays
T3 construct: made in house
How it was run: as §1

DU-145 = assay: NCI SRB assay; type: cell-based, human
[1] = Homo sapiens, RPMI-8226, RPMI-8226, 5-dose
[2] = Homo sapiens, MCF7, MCF7, 5-dose
[3] = Homo sapiens, MDA-MB-468, MDA-MB-468, 5-dose
[4] = Homo sapiens, OVCAR-4, OVCAR-4, 5-dose

T1 sequence (O43570 25-354): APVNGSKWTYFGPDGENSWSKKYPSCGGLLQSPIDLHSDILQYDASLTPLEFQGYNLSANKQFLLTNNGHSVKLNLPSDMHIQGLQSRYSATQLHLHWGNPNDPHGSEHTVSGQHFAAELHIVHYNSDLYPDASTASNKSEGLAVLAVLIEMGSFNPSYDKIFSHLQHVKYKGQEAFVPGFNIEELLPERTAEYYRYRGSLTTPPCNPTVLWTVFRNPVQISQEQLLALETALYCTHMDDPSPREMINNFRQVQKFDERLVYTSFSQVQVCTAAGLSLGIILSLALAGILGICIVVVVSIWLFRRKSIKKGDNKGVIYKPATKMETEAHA
T3 sequence (P00915 whole entry): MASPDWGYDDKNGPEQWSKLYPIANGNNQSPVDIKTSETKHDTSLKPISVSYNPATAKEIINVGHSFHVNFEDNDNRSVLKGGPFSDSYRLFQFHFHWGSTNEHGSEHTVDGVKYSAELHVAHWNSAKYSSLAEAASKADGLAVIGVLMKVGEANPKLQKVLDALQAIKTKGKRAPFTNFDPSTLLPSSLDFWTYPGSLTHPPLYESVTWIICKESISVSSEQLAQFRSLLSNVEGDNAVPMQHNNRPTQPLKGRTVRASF

With `Cc1ccc(-c2nc(Nc3ccccc3C(=O)O)c3ccccc3n2)cc1` [6b, 2-((2-(p-Tolyl)quinazolin-4-yl)amino)benzoic acid] the GI% (A549/ATCC; A549/ATCC, 10 μM) was 70%, the “Growth Percent” value (A549/ATCC; A549/ATCC, 1.00E-5 Molar) was 30.48% and the LC50 (A549/ATCC; A549/ATCC, 5-dose) was < 100 µM. For the same compound, the TGI (A549/ATCC; A549/ATCC, 5-dose) was <100 µM, the TGI (A549/ATCC; A549/ATCC, 5-dose, listed as D - 835857) was > 1.00E-4 Molar and the LC50 (A549/ATCC; Homo sapiens, A549, A549/ATCC, 5-dose) was > 100 µM. The GI50 (A549/ATCC; Homo sapiens, A549/ATCC, 5-dose) was 8.31 µM, the GI50 (RPMI-8226; [1]) was 4.44 µM and the CC50 (RPMI-8226; [1]) was > 100 µM. For the same compound, the GI% (RPMI-8226; RPMI-8226, 10 μM) was 83%, the “Growth Percent” value (RPMI-8226; RPMI-8226, 1.00E-5 Molar) was 17.08% and the GI50 (RPMI-8226; RPMI-8226, 5-dose) was 4.4 µM. The TGI (RPMI-8226; RPMI-8226, 5-dose) was <100 µM, the TGI (RPMI-8226; RPMI-8226, 5-dose, listed as D - 835857) was > 1.00E-4 Molar and the CC50 (RPMI-8226; RPMI-8226, 5-dose) was < 100 µM. For the same compound, the GI50 (MCF7; [2]) was 9.41 µM, the CC50 (MCF7; [2]) was > 100 µM and the GI% (MCF7; MCF7, 10 μM) was 92%. For the same compound, the “Growth Percent” value (MCF7; MCF7, 1.00E-5 Molar) was 7.70%, the GI50 (MCF7; MCF7, 5-dose) was 9.4 µM and the TGI (MCF7; MCF7, 5-dose) was 89.9 µM. For the same compound, the TGI (MCF7; MCF7, 5-dose, listed as D - 835857) was 8.99E-5 Molar, the CC50 (MCF7; MCF7, 5-dose) was < 100 µM and the GI50 (MDA-MB-468; [3]) was 8.29 µM. The CC50 (MDA-MB-468; [3]) was > 100 µM, the GI% (MDA-MB-468; MDA-MB-468, 10 μM) was 126% and the “Growth Percent” value (MDA-MB-468; MDA-MB-468, 1.00E-5 Molar) was -26.88%. For the same compound, the GI50 (MDA-MB-468; MDA-MB-468, 5-dose) was 8.3 µM, the TGI (MDA-MB-468; MDA-MB-468, 5-dose, listed as D - 835857) was 4.23E-5 Molar and the CC50 (MDA-MB-468; MDA-MB-468, 5-dose) was < 100 µM. For the same compound, the GI% (T-47D; 10 μM) was 89%, the “Growth Percent” value (T-47D; 1.00E-5 Molar) was 10.72% and the GI50 (T-47D) was 6.3 µM. The TGI (T-47D) was 70.0 µM, the TGI (T-47D; listed as D - 835857) was 7.00E-5 Molar and the CC50 (T-47D) was < 100 µM. The GI50 (T-47D; Homo sapiens, T47D) was 6.29 µM, the CC50 (T-47D; Homo sapiens, T47D) was > 100 µM and the GI50 (OVCAR-4; [4]) was 8.77 µM. For the same compound, the CC50 (OVCAR-4; [4]) was > 100 µM, the GI% (OVCAR-4; OVCAR-4, 10 μM) was 78% and the “Growth Percent” value (OVCAR-4; OVCAR-4, 1.00E-5 Molar) was 21.83%. The GI50 (OVCAR-4; OVCAR-4, 5-dose) was 8.8 µM, the TGI (OVCAR-4; OVCAR-4, 5-dose) was <100 µM and the TGI (OVCAR-4; OVCAR-4, 5-dose, listed as D - 835857) was > 1.00E-4 Molar. For the same compound, the CC50 (OVCAR-4; OVCAR-4, 5-dose) was < 100 µM, the CC50 (PC-3; Homo sapiens, PC-3, PC-3, 5-dose) was > 100 µM and the GI50 (PC-3; Homo sapiens, PC-3, 5-dose) was 12.7 µM. For the same compound, the GI% (PC-3; PC-3, 10 μM) was 84%, the “Growth Percent” value (PC-3; PC-3, 1.00E-5 Molar) was 15.75% and the TGI (PC-3; PC-3, 5-dose) was <100 µM. The TGI (PC-3; PC-3, 5-dose, listed as D - 835857) was > 1.00E-4 Molar, the CC50 (PC-3; PC-3, 5-dose) was < 100 µM and the GI% (HCC-2998; HCC-2998, 10 μM) was 95%. For the same compound, the “Growth Percent” value (HCC-2998; HCC-2998, 1.00E-5 Molar) was 5.44%, the TGI (HCC-2998; HCC-2998, 5-dose) was 36.0 µM and the TGI (HCC-2998; HCC-2998, 5-dose, listed as D - 835857) was 3.60E-5 Molar. For the same compound, the CC50 (HCC-2998; HCC-2998, 5-dose) was < 100 µM, the CC50 (HCC-2998; Homo sapiens, HCC 2998, HCC-2998, 5-dose) was > 100 µM and the GI50 (HCC-2998; Homo sapiens, HCC-2998, 5-dose) was 12.4 µM. For the same compound, the GI% (NCI/ADR-RES; 10 μM) was 95%, the “Growth Percent” value (NCI/ADR-RES; 1.00E-5 Molar) was 5.16% and the TGI (NCI/ADR-RES; 5-dose) was 98.5 µM. For the same compound, the TGI (NCI/ADR-RES; 5-dose, listed as D - 835857) was 9.85E-5 Molar, the CC50 (NCI/ADR-RES; 5-dose) was < 100 µM and the GI50 (NCI/ADR-RES; Homo sapiens, 5-dose) was 16.8 µM. For the same compound, the CC50 (NCI/ADR-RES; Homo sapiens, 5-dose) was > 100 µM, the CC50 (OVCAR-8; Homo sapiens, OVCAR-8, OVCAR-8, 5-dose) was > 100 µM and the GI50 (OVCAR-8; Homo sapiens, OVCAR-8, 5-dose) was 18.2 µM. The GI% (OVCAR-8; OVCAR-8, 10 μM) was 69%, the “Growth Percent” value (OVCAR-8; OVCAR-8, 1.00E-5 Molar) was 30.51% and the TGI (OVCAR-8; OVCAR-8, 5-dose) was <100 µM. The TGI (OVCAR-8; OVCAR-8, 5-dose, listed as D - 835857) was > 1.00E-4 Molar, the CC50 (OVCAR-8; OVCAR-8, 5-dose) was < 100 µM and the GI% (HCT-116; HCT-116, 10 μM) was 93%. The “Growth Percent” value (HCT-116; HCT-116, 1.00E-5 Molar) was 6.70%, the TGI (HCT-116; HCT-116, 5-dose) was 36.1 µM and the TGI (HCT-116; HCT-116, 5-dose, listed as D - 835857) was 3.61E-5 Molar. The CC50 (HCT-116; HCT-116, 5-dose) was < 100 µM, the CC50 (HCT-116; Homo sapiens, HCT-116, HCT-116, 5-dose) was > 100 µM and the GI50 (HCT-116; Homo sapiens, HCT-116, 5-dose) was 10.1 µM. The “Selectivity ratio I/XII” value (hCA XII; KI hCA I / KI hCA XII) was 14.1, the “Selectivity ratio II/XII” value (hCA XII; KI hCA II / KI hCA XII) was 6.79 and the Ki (hCA XII; mean from 3 assays) was 7.1 µM. For the same compound, the “Selectivity ratio II/IX” value (hCA IX; KI hCA II / KI hCA IX) was 1.40, the Ki (hCA IX; mean from 3 assays) was 34.4 µM and the Ki (hCA I) was > 100 µM. For the same compound, the GI% (DU-145; DU-145, 10 μM) was 81% and the “Growth Percent” value (DU-145; DU-145, 1.00E-5 Molar) was 19.37%.
